Assay results: patent publication EP4748903A1, “ULTRAVIOLET ABSORBER, ANTIOXIDANT, ANTI-GLYCATION AGENT, EXTERNAL PREPARATION FOR SKIN, COSMETIC, METHOD FOR PRODUCING COMPOUND, AND COMPOUND” (Meijo University, priority 2023, dated 2025)
Like-named read-outs stand apart in the source and are kept apart here.

Experiments:
[1] = Time course experiment of ABTS radical scavenging (temporal change in antioxidant activity); assay type: biochemical; conditions: recorded for 2900 seconds at 25°C, 734 nm; saclipin A 0.60 mM, saclipin B 0.18 mM, ascorbic acid 6 µM, Trolox 6 µM
Procedure: A 7 mM ABTS aqueous solution and a 2.45 mM potassium persulfate aqueous solution were mixed at 25°C for 16 hours in the dark to prepare an ABTS radical solution. The ABTS radical solution was diluted with ethanol such that the absorbance at 734 nm was about 1.0. 50 µL of this diluted ABTS radical solution and 50 µL of the test sample ethanol solution were mixed, and the mixed reactant was held at room temperature for 20 or 40 minutes in the dark, then the absorbance was measured at 734 nm. The final reaction concentration of the sample was adjusted to 0 mM, 0.06 mM, 0.12 mM, 0.18 mM, 0.24 mM, 0.30 mM, 0.60 mM, 1.20 mM, and 1.80 mM. Ascorbic acid and Trolox were used as standard samples. Inhibition rates were calculated using the following equation. Inhibition activity (%) = ((Ab−As)/Ab) × 100 [formula]
Therefore, the temporal change of radical scavenging was measured by a time course experiment. In the time course experiment, the decrease in absorbance after addition of the test sample was recorded continuously for 2900 seconds at 25°C and 734 nm. In the time course experiment, the final reaction concentrations of saclipin A, saclipin B, ascorbic acid, and Trolox were adjusted to 0.60 mM, 0.18 mM, 6 µM, and 6 µM, respectively.

[2] = Measurement of ABTS radical scavenging activity; assay type: biochemical; conditions: for IC50: ABTS method, room temperature, dark; for β/α value: IC50 after 40 minutes (β) divided by IC50 after 20 minutes (α), ABTS radical scavenging
Procedure: To evaluate the antioxidant activity of saclipin A and saclipin B, 2,2-azino-bis(3-ethylbenzothiazoline-6-sulfonic acid) diammonium salt (ABTS) radical scavenging activity was measured.
The ABTS radical solution was diluted with ethanol such that the absorbance at 734 nm was about 1.0. 50 µL of this diluted ABTS radical solution and 50 µL of the test sample ethanol solution were mixed, and the mixed reactant was held at room temperature for 20 or 40 minutes in the dark, then the absorbance was measured at 734 nm. […] Ascorbic acid and Trolox were used as standard samples. Inhibition rates were calculated using the following equation. Inhibition activity (%) = ((Ab−As)/Ab) × 100 [formula]
Here, Ab and As represent the absorbances of the blank sample and the test sample, respectively.

[3] = test system: elastin; test: Elastin anti-glycation assay kit; assay type: biochemical; conditions: for IC50: sample dissolved in DMSO, read-out: IC50 value, inhibition effect on the glycation reaction of elastin
Procedure: (§1) To evaluate the anti-glycation activity of saclipin A and saclipin B, the effect on glycation of elastin and collagen was investigated.
(§2) The effect of saclipin on the glycation of elastin and collagen was evaluated using an elastin anti-glycation assay kit (product number: AAS-AGE-K05, Cosmo Bio Co., Ltd.) and a collagen anti-glycation assay kit (product number: AK71, Cosmo Bio Co., Ltd.), respectively. The assay was performed according to the manufacturer's protocol using saclipin A and saclipin B purified from Suizenji-nori. However, since saclipin was not dissolved in the attached aqueous buffer solution, it was dissolved in dimethyl sulfoxide (DMSO) and subjected to an experiment. The final reaction concentration of the sample was adjusted to 0 mM, 0.5 mM, 1.0 mM, 2.0 mM, and 4.0 mM.

[4] = test system: collagen; test: Collagen anti-glycation assay kit; assay type: biochemical; conditions: sample dissolved in DMSO; read-out: IC50 value, inhibition effect on glycation of collagen
Procedure: as §1, §2

[5] = Photoisomerization by light irradiation, HPLC analysis; assay type: physicochemical; conditions: for time for which the amount ratio of saclipin A and saclipin B did not change: dark treatment after light irradiation
Procedure: Saclipin A purified from dried Suizenji-nori was dissolved in methanol, ethanol or acetonitrile, and the solution was irradiated with light of 6000 lux under a white fluorescent lamp for 24 hours or longer. Thereafter, HPLC analysis was performed under the following measurement conditions to calculate the amounts of saclipin A and saclipin B, and the isomerization rate of saclipin A was calculated. The chromatogram of the saclipin A solution before light irradiation is shown on the left in Fig. 6, and the chromatogram of the saclipin A solution after light irradiation is shown on the right in Fig. 6.
• Detection wavelength: 320 nm • Column: Inerteil ODS-P 3 µm, 4.6×33 + 4.6×150 mm • Eluent: 50% Acetonitrile (isocratic)

[6] = Absorption spectrum analysis (ultraviolet absorption); assay type: physicochemical; conditions: methanol solution; for Molar absorption coefficient: at the absorption maximum
Procedure: The obtained dried sample was dissolved in methanol, and subjected to absorption spectrum analysis, high-resolution mass spectrometry, and measurement of ^1H and ^13C-NMR spectra. In each graph of Fig. 3, the horizontal axis represents wavelength (nm), and the vertical axis represents relative absorbance.
The absorption spectra of "saclipin A (Sac A)", "saclipin B (Sac B)", "methyl-esterified saclipin A (Sac A_methyl ester)", and "methyl-esterified saclipin B (Sac B_methyl ester)" were acquired by the method described in "2. Structure determination of saclipin A and saclipin B" described above. In each graph of Fig. 11, the horizontal axis represents wavelength (nm), and the vertical axis represents relative absorbance. The maximum point of saclipin A was 317 nm. The maximum point of methyl-esterified saclipin A was 316 nm. The maximum point of saclipin B was 319 nm. The maximum point of methyl-esterified saclipin B was 319 nm.

[7] = test system: neonatal human dermal fibroblasts (NHDF); test: MTT test on neonatal human dermal fibroblasts (biocompatibility test); assay type: cell-based; conditions: compared with 1% ethanol control; for appearance of cells (microphotographs): 10.0 µM; for cytotoxicity (cell viability, MTT): 0.1 to 10.0 µM
Procedure: (§3) In order to examine the cytotoxicity of saclipin A and saclipin B, MTT tests were performed on (1) neonatal human dermal fibroblasts and (2) human keratinocytes.
(§4) The neonatal human dermal fibroblasts (NHDF) were purchased from ATCC. The neonatal human dermal fibroblasts were seeded in 96-well plates at 1×10^4 cells/well. Neonatal human dermal fibroblasts were cultured overnight at 37°C, 5% CO2 using Dulbecco's modified eagle medium (DMEM) in which 10% fetal bovine serum, […], and 10 mM HEPES were added to DMEM. 0.1 µM, 0.36 µM, 1.0 µM, 3.6 µM, and 10.0 µM of saclipin A or saclipin B were added to each cell. As a control, 1% ethanol was added to the cells. Next, 0.5 mg/mL MTT(3-(4,5-dimethylthiazole-2-yl)-2,5-diphenyltetrazolium bromide) was added, and the mixture was cultured for 20 hours at 37°C, 5% CO2. The whole formazan crystals were dissolved in dimethyl sulfoxide (DMSO), and then the absorbance of each sample solution was measured at 540 nm to determine the cell viability.
(§5) The upper part of Fig. 12 is a graph showing the results of cell viability (%). The labels on the horizontal axis represent each sample corresponding to the bar graph. For example, the labels "saclipin A" "10.00" represent that the cells were treated with 10.0 µM saclipin A. The vertical axis represents the cell viability when the cell viability of cells treated with 1% ethanol is taken as 100%.

[8] = test system: PSVK1 cells; test: MTT test on human keratinocytes (biocompatibility test); assay type: cell-based; conditions: compared with 1% ethanol control; for appearance of cells (microphotographs): 10.0 µM; for cytotoxicity (cell viability, MTT): 0.1 to 10.0 µM
Procedure: as §3, §4
PSVK1 cells (JCRB1093, JCRB Cell Bank, National Institute of Biomedical Innovation, Health and Nutrition, Japan) were used as human keratinocytes. In this test, the test was carried out in the same manner as in "(1) MTT test on neonatal human dermal fibroblasts" described above except that the cells were cultured using a keratinocyte medium (Thermo Fisher Scientific) supplemented with 0.05 mg/mL bovine pituitary extract, 0.005 µg/mL epidermal growth factor, 100 units/mL penicillin, and 100 µg/mL streptomycin (Gibco).
as §5, with “Fig. 13” for “Fig. 12”, “viability (cell viability, %).” for “viability (%).”, “to each” for “to the”

[9] = reaction time 20 min, read-out: IC50 value (µM) 20 min
[10] = reaction time 40 min, read-out: IC50 value (µM) 40 min

SMILES	temporal change of radical scavenging [1]	IC50 [2, 9]	IC50 [2, 10]	β/α value [2]	IC50 [3]	IC50 [4]	time for which the amount ratio of saclipin A and saclipin B did not change [5]	dissolved saclipin A converted to saclipin B ([5]; methanol, ethanol or acetonitrile, 6000 lux white fluorescent lamp, 24 hours or longer)	Molar absorption coefficient [6]	Absorption maximum [6]	Absorption maximum ([6]; listed as Saclipin A)	appearance of cells (microphotographs) [7]	cytotoxicity (cell viability, MTT) [7]	appearance of cells (microphotographs) [8]	cytotoxicity (cell viability, MTT) [8]	glycation reaction inhibited (elastin) ([3]; concentration of 4 mM)
O=C1O[C@H]([C@@H](O)CO)C(O)=C1O [Ascorbic acid, reference compound]	hardly functioned after a radical scavenging reaction occurred immediately after addition	7.9 µM	7.5 µM	0.95												
Cc1c(C)c2c(c(C)c1O)CCC(C)(C(=O)O)O2 (centres unmarked) [Trolox, 6-hydroxy-2,5,7,8-tetramethylchroman-2-carboxylic acid, reference compound]	hardly functioned after a radical scavenging reaction occurred immediately after addition	6.7 µM	6.7 µM	1.00												
N=C(N)NN [aminoguanidine, reference compound]					1500 µM	2400 µM										
CCC(=O)/C=C/C=C/C=C/C(=O)CCCCCCCC(=O)O [saclipin A, (10E,12E,14E)-9,16-Dioxooctadeca-10,12,14-trienoic acid]	proceeded even after 2900 seconds	974 µM	717 µM	0.78	2500 µM	1900 µM	at least 96 hours	About 90%	26,454 M^-1cm^-1	317 nm	316 nm	no abnormality was observed	not higher than that of 1% ethanol at any concentration	no abnormality was observed	not higher than that of 1% ethanol at any concentration	
CCC(=O)/C=C/C=C\C=C\C(=O)CCCCCCCC(=O)O [saclipin B, (10E,12Z,14E)-9,16-Dioxooctadeca-10,12,14-trienoic acid]	proceeded even after 2900 seconds	182 µM	142 µM	0.74		900 µM	at least 96 hours		30,555 M^-1cm^-1	319 nm		no abnormality was observed	not higher than that of 1% ethanol at any concentration	no abnormality was observed	not higher than that of 1% ethanol at any concentration	about 45%
